Results reported in the supplement of paper PMC10307832.

Key:
Assay in all cases: relative viability (nuclei count vs DMSO), 5 days (fraction); higher = more cells survive
VE-821 + Bortezomib = compound: CS(=O)(=O)c1ccc(-c2cnc(N)c(C(=O)Nc3ccccc3)n2)cc1 [VE-821] + CC(C)C[C@H](NC(=O)[C@H](Cc1ccccc1)NC(=O)c1cnccn1)B(O)O [Bortezomib] (partner 0.002 µM)
How it was run: (§1)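 Lung cancer cell lines, seeded in 1536-well plates, were treated the following day by pin tool with a single drug or with five library-drug doses (not always all listed) in √10 steps on top of a fixed anchor-drug dose. Cells were fixed and nuclei stained in one step after 5 days, and nuclei were counted. Relative viability is the nuclei count for treated wells divided by that for vehicle wells, reported as medians of duplicate plates.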

VE-821 + Luminespib = compound: CS(=O)(=O)c1ccc(-c2cnc(N)c(C(=O)Nc3ccccc3)n2)cc1 [VE-821] + CCNC(=O)c1noc(-c2cc(C(C)C)c(O)cc2O)c1-c1ccc(CN2CCOCC2)cc1 [Luminespib] (partner 0.01 µM)
How it was run: as §1

VE-821 + Pictilisib = compound: CS(=O)(=O)c1ccc(-c2cnc(N)c(C(=O)Nc3ccccc3)n2)cc1 [VE-821] + CS(=O)(=O)N1CCN(Cc2cc3nc(-c4cccc5[nH]ncc45)nc(N4CCOCC4)c3s2)CC1 [Pictilisib] (partner 1 µM)
How it was run: as §1

Ruxolitinib + Trametinib = compound: N#CC[C@H](C1CCCC1)n1cc(-c2ncnc3[nH]ccc23)cn1 [Ruxolitinib] + CC(=O)Nc1cccc(-n2c(=O)n(C3CC3)c(=O)c3c(Nc4ccc(I)cc4F)n(C)c(=O)c(C)c32)c1 [Trametinib] (partner 0.02 µM)
How it was run: as §1

Row | Cell Line | relative viability (VE-821 + Bortezomib; first compound 0.08 µM) | relative viability (VE-821 + Bortezomib; first compound 0.253 µM) | relative viability (VE-821 + Bortezomib; first compound 0.8 µM) | relative viability (VE-821 + Bortezomib; first compound 2.53 µM) | relative viability (VE-821 + Bortezomib; first compound 8 µM) | relative viability (VE-821 + Luminespib; first compound 0.08 µM) | relative viability (VE-821 + Luminespib; first compound 0.253 µM) | relative viability (VE-821 + Luminespib; first compound 0.8 µM) | relative viability (VE-821 + Luminespib; first compound 2.53 µM) | relative viability (VE-821 + Luminespib; first compound 8 µM) | relative viability (VE-821 + Pictilisib; first compound 0.08 µM) | relative viability (VE-821 + Pictilisib; first compound 0.253 µM) | relative viability (VE-821 + Pictilisib; first compound 0.8 µM) | relative viability (VE-821 + Pictilisib; first compound 2.53 µM) | relative viability (VE-821 + Pictilisib; first compound 8 µM) | relative viability (Ruxolitinib + Trametinib; first compound 0.08 µM) | relative viability (Ruxolitinib + Trametinib; first compound 0.253 µM) | relative viability (Ruxolitinib + Trametinib; first compound 0.8 µM) | relative viability (Ruxolitinib + Trametinib; first compound 2.53 µM) | relative viability (Ruxolitinib + Trametinib; first compound 8 µM)
1 | NCI-H1734 | 1.3 | 0.873 | 0.878 | 0.879 | 0.611 | 0.199 | 0.197 | 0.208 | 0.165 | 0.193 | 0.453 | 0.47 | 0.433 | 0.527 | 0.36 | 0.66 | 0.647 | 0.635 | 0.462 | 0.607
2 | SK-LU-1 | 1.28 | 1.13 | 0.99 | 1.12 | 1.21 | 0.177 | 0.203 | 0.193 | 0.203 | 0.164 | 0.602 | 0.557 | 0.621 | 0.432 | 0.316 | 0.5 | 0.578 | 0.548 | 0.3 | 0.408
3 | NCI-H3122 | 1 | 1.02 | 1.01 | 1.02 | 1 | 0.111 | 0.064 | 0.0908 | 0.0825 | 0.0706 | 0.666 | 0.672 | 0.563 | 0.765 | 0.78 | 0.232 | 0.192 | 0.21 | 0.167 | 0.227
4 | CAL-12T | 1.04 | 0.984 | 1.13 | 0.996 | 0.717 | 0.655 | 0.363 | 0.4 | 0.327 | 0.137 | 0.479 | 0.394 | 0.448 | 0.427 | 0.314 | 0.341 | 0.375 | 0.376 | 0.241 | 0.31
5 | HARA | 1.4 | 1.07 | 1.22 | 1.23 | 1.05 | 0.956 | 0.836 | 0.579 | 0.695 | 0.448 | 0.509 | 0.294 | 0.408 | 0.401 | 0.477 | 0.639 | 0.622 | 1.07 | 0.269 | 0.775
6 | NCI-H1666 | 0.942 | 0.864 | 0.755 | 0.736 | 0.549 | 1.04 | 1.01 | 1.1 | 1.03 | 0.761 | 0.516 | 0.365 | 0.399 | 0.441 | 0.403 | 0.834 | 0.87 | 0.871 | 0.76 | 0.881
7 | NCI-H460 | 1.51 | 1.05 | 0.977 | 0.823 | 0.248 | 0.0302 | 0.0482 | 0.0362 | 0.0342 | 0.0308 | 0.416 | 0.355 | 0.288 | 0.488 | 0.325 | 0.195 | 0.161 | 0.151 | 0.0402 | 0.134
8 | NCI-H1792 | 1.25 | 1.05 | 0.938 | 1.01 | 0.947 | 0.462 | 0.524 | 0.367 | 0.506 | 0.359 | 0.274 | 0.393 | 0.281 | 0.319 | 0.271 | 0.38 | 0.498 | 0.407 | 0.347 | 0.359
9 | NCI-H2087 | 0.996 | 1.07 | 1.16 | 0.77 | 0.937 | 0.133 | 0.176 | 0.206 | 0.144 | 0.131 | 1.23 | 0.721 | 0.971 | 1.14 | 0.888 | 0.173 | – | 0.22 | 0.263 | 0.27
10 | NCI-H1355 | 1.26 | 1.15 | 1.09 | 1.27 | 0.718 | 0.71 | 0.665 | 0.643 | 0.597 | 0.409 | 0.431 | 0.458 | 0.411 | 0.476 | 0.32 | 0.372 | 0.372 | 0.395 | 0.347 | 0.386
11 | NCI-H838 | 0.912 | 0.855 | 0.485 | 1.22 | 0.652 | 0.275 | 0.225 | 0.224 | 0.266 | 0.158 | 0.436 | 0.359 | 0.496 | 0.561 | 0.557 | 0.554 | 0.44 | 0.477 | 0.217 | 0.185
12 | SW 1573 | 1.23 | 1.05 | 1.15 | 1.15 | 1.01 | 0.21 | 0.228 | 0.214 | 0.226 | 0.165 | 0.625 | 0.531 | 0.541 | 0.569 | 0.47 | 0.533 | 0.545 | 0.616 | 0.486 | 0.574
13 | NCI-H2085 | 1.04 | 0.929 | 0.892 | 1.12 | 0.98 | 0.439 | 0.457 | 0.385 | 0.411 | 0.309 | 0.461 | 0.446 | 0.485 | 0.483 | 0.409 | 0.639 | 0.548 | 0.624 | 0.483 | 0.575
14 | NCI-H1651 | 0.978 | 0.964 | 1.07 | 1.04 | 0.921 | 0.907 | 0.819 | 0.63 | 1.16 | 0.679 | 0.648 | 0.584 | 0.602 | 0.557 | 0.585 | 0.722 | 0.798 | 0.821 | 0.767 | 0.859
15 | NCI-H1993 | 1.25 | 0.869 | 0.967 | 1.16 | 0.812 | 1.1 | 0.857 | 0.67 | 0.655 | 0.704 | 0.861 | 0.821 | 0.822 | 0.874 | 0.862 | 0.433 | 0.734 | 0.573 | 0.49 | 0.443
16 | NCI-H2126 | 1.22 | 1.04 | 1.11 | 1.04 | 1.09 | 0.908 | 0.826 | 0.807 | 0.782 | 0.469 | 0.483 | 0.436 | 0.487 | 0.507 | 0.439 | 0.559 | 0.543 | 0.607 | 0.58 | 0.664
